Source: patent USRE39608E1, “Substituted benzimidazoles and their use as PARP inhibitors” (Abbott GmbH & Co. KG, priority 1998, dated 2007)
Structures can show the parent of a compound that is named as a salt.

Assays:
[1] = S. Cuzzocrea et al., Br. J. Pharmacol. 121 (1997); cited from earlier work
[2] = Determination of the water solubility; type: physicochemical; details: pH of from 5 to 6 with sodium acetate solution
Protocol: A compound to be measured was dissolved directly in a specified volume of water and the resulting solution was brought to a pH of from 5 to 6 with a sodium acetate solution so that the concentration of the active compound to be tested was reached. If the test substance was not present as a water-soluble salt, it was dissolved in a very small amount of dimethyl sulfoxide and then diluted with water (final concentration of dimethyl sulfoxide≦1%), after which the pH was adjusted here too. Here, Example 1 according to the invention gave a solubility of >0.5%.

SMILES	protective effects in a model for circulatory shock [1]	solubility [2]
NC(=O)c1cccc(N)c1 [3-aminobenzamide]	protective effects	–
NC(=O)c1cccc2[nH]c(C3CCNCC3)nc12 [Example 1, 2-(Piperidin-4-yl)benzimidazole-4-carboxamide.2 HCl]	–	> 0.5%
